Assay results from ChEMBL document CHEMBL5252652, “Benzo[b]naphtho[2,1-d]furans and 2-Phenylnaphthalenes from Streblus usambarensis” (J Nat Prod, 2023).
Converted amounts (≈) assume the structure as drawn.

Key:
MCF7 = assay: Cytotoxicity against human MCF7 cells assessed as reduction in cell viability incubated for 24 hrs by PrestoBlue reagent based fluorescence assay; format: toxicity; details: mcf7, 24 h
Bacillus subtilis = assay: Antibacterial activity against Bacillus subtilis assessed as inhibition of bacterial growth incubated for 4 to 20 hrs by resazurin based microplate reader analysis; format: functional; details: time 4-20 hrs

Row | MIC (Bacillus subtilis) [µM] | SMILES | Activity (MCF7)
1 |  | COc1c(O)cc2c(oc3c4cc(O)ccc4ccc23)c1CC=C(C)C | Non-Toxic
2 | 9 (≈ 2.87 µg/mL) | CC1(C)C=Cc2c(-c3ccc4ccc(O)cc4c3)ccc(O)c2O1 | Non-Toxic
3 |  | COc1ccc2ccc3c4cc(O)c(OC)c(CC=C(C)C)c4oc3c2c1 | Non-Toxic
